In patent US9714240B2 (PharmAkea, Inc., priority 2013, dated 2017) one finds IC50 data, which are given here for 33 compounds.

The target in the experiment is T1, human autotaxin (Homo sapiens, UniProt Q13822).
T1 construct: Conditioned media is collected from confluent Hep3B cells and concentrated 20-fold; endogenous in cells; host or cells: Hep3B human hepatocellular carcinoma cells (concentrated conditioned medium)
As to the kind of experiment: Human Autotaxin Assay (choline release from LPC). It counts as biochemical. The note with it: ATX in concentrated conditioned media from Hep3B cells, substrate LPC 14:0 100 uM, absorbance at 555 nm. The method, then: ATX activity is assayed in concentrated conditioned media from Hep3B human hepatocellular carcinoma cells by measuring the amount of choline released from the substrate, lysophosphatidylcholine (LPC) as it is cleaved to LPA. Conditioned media is collected from confluent Hep3B cells and concentrated 20-fold using Centriprep-30 filter devices (Millipore). To assay for autotaxin inhibition, 10-20 μL of the concentrated conditioned media is incubated with 2.5 μL of a test compound in DMSO and 72.5-82.5 μL lyso-PLD buffer (100 mM Tris pH 9, 500 mM NaCl, 5 mM MgCl2, 5 mM CaCl2, 0.05% Triton X-100 in the presence or absence of 0.2% fatty-acid-free human serum albumin) for 15 min at 37° C. After the 15 min incubation, 5 ul of 2 mM LPC (14:0; Avanti Polar Lipids Cat#855575C) diluted in lyso-PLD buffer is added for a final concentration of 100 uM and the incubation continues for 1.5-3 hours at 37° C. 100 μl of a color mix containing 4.5 mM 4-aminoantipyrine, 2.7 mM N-ethyl-N-(2-hydroxy-3-sulfopropyl)-m-toluidine, 21 units/ml horseradish peroxidase and 3 units/ml choline oxidase in 50 mM Tris, pH 8, 4.5 mM MgCl2 is added and the incubation continued for 15 minutes at room temperature before reading the absorbance at 555 nm.

A value given as a limit tells only on which side of the number the result lay.

One may read the IC50 as the concentration needed to halve the response being measured. Lower therefore signals greater potency in that assay. In the case of `COc1ccc(Cn2cc(/C=C(\C#N)c3ccc(C(=O)O)nc3)c3ccc(Cl)cc32)cn1` [Compound 2-3, 5-[(Z)-2-[6-chloro-1-[(6-methoxy-3-pyridyl)methyl]indol-3-yl]-1-cyano-vinyl]pyridine-2-carboxylic Acid], the half-maximal inhibitory concentration (IC50) was at most 0.5 µM.

On to `N#C/C(=C\c1cn(Cc2ccc(F)cc2)c2cc(Cl)ccc12)c1ccc(C(=O)O)nc1` [Compound 2-2, 5-[(Z)-2-[6-chloro-1-[(4-fluorophenyl)methyl]indol-3-yl]-1-cyano-vinyl]pyridine-2-carboxylic Acid], for which the half-inhibitory concentration (IC50) is at most 0.5 µM.

`N#C/C(=C\c1cn(Cc2ccc(OCC(F)(F)F)nc2)c2cc(Cl)ccc12)c1ccc(C(=O)O)cc1` [Compound 1-48, (Z)-4-(2-(6-chloro-1-((6-(2,2,2-trifluoroethoxy)pyridin-3-yl)methyl)-1H-indol-3-yl)-1-cyanovinyl)benzoic Acid] displayed a half-inhibitory concentration (IC50) of over 10 µM.

Regarding `N#C/C(=C\c1cn(Cc2ccc(F)cc2C(F)(F)F)c2cc(Cl)ccc12)c1ccc(C(=O)O)cc1` [Compound 1-46, (Z)-4-(2-(6-chloro-1-(4-fluoro-2-(trifluoromethyl)benzyl)-1H-indol-3-yl)-1-cyanovinyl)benzoic Acid], the IC50 was over 10 µM.

`CCOc1ccc2c(/C=C(\C#N)c3ccc(C(=O)O)cc3)cn(Cc3ccc(F)cc3)c2c1` [Compound 1-65, (Z)-4-(1-cyano-2-(6-ethoxy-1-(4-fluorobenzyl)-1H-indol-3-yl)vinyl)benzoic Acid] showed a half-inhibitory concentration (IC50) of at most 0.5 µM.

The compound `N#C/C(=C\c1cn(Cc2ccc(Cl)nc2)c2cc(Cl)ccc12)c1ccc(C(=O)O)cc1` [Compound 1-16, 4-[(Z)-2-[6-chloro-1-[(6-chloro-3-pyridyl)methyl]indol-3-yl]-1-cyano-vinyl]benzoic Acid] yielded an IC50 of at most 0.5 µM.

Compound `N#C/C(=C\c1cn(Cc2cnc(C(F)(F)F)s2)c2cc(Cl)ccc12)c1ccc(C(=O)O)cc1` [Compound 1-15, 4-[(Z)-2-[6-chloro-1-[[2-(trifluoromethyl)thiazol-5-yl]methyl]indol-3-yl]-1-cyano-vinyl]benzoic Acid] had an IC50 of at most 0.5 µM.

The compound `N#C/C(=C\c1cn(Cc2ccccc2)c2cc(Cl)ccc12)c1cccc(C(=O)O)c1` [Compound 2-4, 3-[(Z)-2-(1-benzyl-6-chloro-indol-3-yl)-1-cyano-vinyl]benzoic Acid] returned an IC50 of 0.5 to 10 µM.

The compound `N#C/C(=C\c1cn(Cc2ccc(C(F)(F)F)cc2)c2cc(Cl)ccc12)c1ccc(C(=O)O)cc1` [Compound 1-21, 4-[(Z)-2-[6-chloro-1-[[4-(trifluoromethyl)phenyl]methyl]indol-3-yl]-1-cyano-vinyl]benzoic Acid] registered a half-inhibitory concentration (IC50) of 0.5 to 10 µM.

In turn, `N#C/C(=C\c1cn(Cc2ccc(F)cc2)c2cc(F)cc(F)c12)c1ccc(C(=O)O)cc1` [Compound 1-11, 4-[(Z)-1-cyano-2-[4,6-difluoro-1-[(4-fluorophenyl)methyl]indol-3-yl]vinyl]benzoic Acid] returned an IC50 of at most 0.5 µM.

Turning to `N#C/C(=C\c1cn(Cc2cc(C(F)(F)F)cc(C(F)(F)F)c2)c2cc(Cl)ccc12)c1ccc(C(=O)O)cc1` [Compound 1-20, 4-[(Z)-2-[1-[[3,5-bis(trifluoromethyl)phenyl]methyl]-6-chloro-indol-3-yl]-1-cyano-vinyl]benzoic Acid], the IC50 was over 10 µM.

`N#C/C(=C\c1cn(Cc2ccc(F)cc2)c2cc(Cl)ccc12)c1ccc(C(=O)O)cc1` [Compound 1-4, (Z)-4-(2-(6-chloro-1-(4-fluorobenzyl)-1H-indol-3-yl)-1-cyanovinyl)benzoic Acid] displayed a concentration for half-maximal inhibition (IC50) of at most 0.5 µM.

As to `N#C/C(=C\c1cn(Cc2cc(Cl)cc(Cl)c2)c2cc(Cl)ccc12)c1ccc(C(=O)O)cc1` [Compound 1-19, 4-[(Z)-2-[6-chloro-1-[(3,5-dichlorophenyl)methyl]indol-3-yl]-1-cyano-vinyl]benzoic Acid], the IC50 lay in the range of 0.5 to 10 µM.

In turn, `N#C/C(=C\c1cn(Cc2ccc(F)cc2)c2cc([N+](=O)[O-])ccc12)c1ccc(C(=O)O)cc1` [Compound 1-66, (Z)-4-(1-cyano-2-(1-(4-fluorobenzyl)-6-nitro-1H-indol-3-yl)vinyl)benzoic Acid] came in with an IC50 of at most 0.5 µM.

Take `N#C/C(=C\c1cn(Cc2ccc(F)cc2)c2cc(OC(F)(F)F)ccc12)c1ccc(C(=O)O)cc1` [Compound 1-75, (Z)-4-(1-cyano-2-(1-(4-fluorobenzyl)-6-trifluoromethoxy-1H-indol-3-yl)vinyl)benzoic Acid]: the half-inhibitory concentration (IC50) is at most 0.5 µM.

Take `N#C/C(=C\c1cn(Cc2ccc(F)cc2)c2cc(F)ccc12)c1ccc(C(=O)O)cc1` [Compound 1-7, 4-[(Z)-1-cyano-2-[6-fluoro-1-[(4-fluorophenyl)methyl]indol-3-yl]vinyl]benzoic Acid]: the 50% inhibitory concentration (IC50) is at most 0.5 µM.

With `CCOc1ncc(Cn2cc(/C=C(\C#N)c3ccc(C(=O)O)cc3)c3ccc(Cl)cc32)s1` [Compound 1-17, 4-[(Z)-2-[6-chloro-1-[(2-ethoxythiazol-5-yl)methyl]indol-3-yl]-1-cyano-vinyl]benzoic Acid], the IC50 lay in the range of 0.5 to 10 µM.

`N#C/C(=C\c1cn(CCCc2ccc(F)cc2)c2cc(Cl)ccc12)c1ccc(C(=O)O)cc1` [Compound 1-23, 4-[(Z)-2-[6-chloro-1-[3-(4-fluorophenyl)propyl]indol-3-yl]-1-cyano-vinyl]benzoic Acid]: the concentration for half-maximal inhibition (IC50) is over 10 µM.

Turning to `COc1ccc2c(/C=C(\C#N)c3ccc(C(=O)O)cc3)cn(Cc3ccc(OC)nc3)c2c1` [Compound 1-29, 4-[(Z)-1-cyano-2-[6-methoxy-1-[(6-methoxy-3-pyridyl)methyl]indol-3-yl]vinyl]benzoic Acid], the half-maximal inhibitory concentration (IC50) was at most 0.5 µM.

Take `N#C/C(=C\c1cn(Cc2ccc(F)cc2)c2ccc(Cl)cc12)c1ccc(C(=O)O)cc1` [Compound 1-3, 4-[(Z)-2-[5-chloro-1-[(4-fluorophenyl)methyl]indol-3-yl]-1-cyano-vinyl]benzoic Acid]: the half-maximal inhibitory concentration (IC50) was over 10 µM.

`CCCc1noc(Cn2cc(/C=C(\C#N)c3ccc(C(=O)O)cc3)c3ccc(Cl)cc32)n1` [Compound 1-18, 4-[(Z)-2-[6-chloro-1-[(3-propyl-1,2,4-oxadiazol-5-yl)methyl]indol-3-yl]-1-cyano-vinyl]benzoic Acid] returned an IC50 of 0.5 to 10 µM.

On to `CCCn1cc(-n2cc(/C=C(\C#N)c3ccc(C(=O)O)cc3)c3ccc(Cl)cc32)cn1` [Compound 1-12, 4-[(Z)-2-[6-chloro-1-(1-propylpyrazol-4-yl)indol-3-yl]-1-cyano-vinyl]benzoic Acid], for which the IC50 is over 10 µM.

In turn, `N#C/C(=C\c1cn(Cc2ccc(C(F)(F)F)nc2)c2cc(Cl)ccc12)c1ccc(C(=O)O)cc1` [Compound 1-27, 4-[(Z)-2-[6-chloro-1-[[6-(trifluoromethyl)-3-pyridyl]methyl]indol-3-yl]-1-cyano-vinyl]benzoic Acid] registered an IC50 of at most 0.5 µM.

The compound `N#C/C(=C\c1cn(Cc2ccc(F)cc2)c2cc(Br)ccc12)c1ccc(C(=O)O)cc1` [Compound 1-8, 4-[(Z)-2-[6-bromo-1-[(4-fluorophenyl)methyl]indol-3-yl]-1-cyano-vinyl]benzoic Acid] yielded an IC50 of 0.5 to 10 µM.

`COc1ccc(Cn2cc(/C=C(\C#N)c3ccc(C(=O)O)cc3)c3ccc(Cl)c(F)c32)cn1` [Compound 1-50]: the IC50 was at most 0.5 µM.

Take `COc1ccc(Cn2cc(/C=C(\C#N)c3ccc(C(=O)O)cc3)c3ccc(Cl)cc32)cn1` [Compound 1-26, 4-[(Z)-2-[6-chloro-1-[(6-methoxy-3-pyridyl)methyl]indol-3-yl]-1-cyano-vinyl]benzoic Acid]: the 50% inhibitory concentration (IC50) is at most 0.5 µM.

Consider `N#C/C(=C\c1cn(Cc2ccc(F)cc2)c2ccccc12)c1ccc(C(=O)O)cc1` [Compound 1-1, 4-[(Z)-1-cyano-2-[1-[(4-fluorophenyl)methyl]indol-3-yl]vinyl]benzoic Acid], for which the 50% inhibitory concentration (IC50) fell in the range of 0.5 to 10 µM.

`N#C/C(=C\c1cn(Cc2ccc(F)cc2)c2cc(Cl)ccc12)c1cccc(C(=O)O)c1` [Compound 2-26] yielded an IC50 of 0.5 to 10 µM.

For the compound `COc1ccc(Cn2cc(/C=C(\C#N)c3ccc(C(=O)O)cc3)c3ccc(OC(F)(F)F)cc32)cn1` [Compound 1-76], the half-maximal inhibitory concentration (IC50) was at most 0.5 µM.

Regarding `N#C/C(=C\c1cn(Cc2ccc(F)cc2)c2c(F)c(Cl)ccc12)c1ccc(C(=O)O)cc1` [Compound 1-49, (Z)-4-(2-(6-chloro-7-fluoro-1-(4-fluorobenzyl)-1H-indol-3-yl)-1-cyanovinyl)benzoic Acid], the half-inhibitory concentration (IC50) lay in the range of 0.5 to 10 µM.

Compound `N#C/C(=C\c1cn(Cc2ccccc2)c2cc(Cl)ccc12)c1ccc(C(=O)O)cc1` [Compound 1-13, 4-[(Z)-2-(1-benzyl-6-chloro-indol-3-yl)-1-cyano-vinyl]benzoic Acid] came in with an IC50 of 0.5 to 10 µM.

Compound `N#C/C(=C\c1cn(Cc2ccc(OC(F)F)cc2F)c2cc(Cl)ccc12)c1ccc(C(=O)O)cc1` [Compound 1-47, (Z)-4-(2-(6-chloro-1-(4-(difluoromethoxy)-2-fluorobenzyl)-1H-indol-3-yl)-1-cyanovinyl)benzoic Acid] registered a half-inhibitory concentration (IC50) of 0.5 to 10 µM.

Compound `N#C/C(=C\c1cn(Cc2ccc(F)cc2)c2cc(C(F)(F)F)ccc12)c1ccc(C(=O)O)cc1` [Compound 1-9, 4-[(Z)-1-cyano-2-[1-[(4-fluorophenyl)methyl]-6-(trifluoromethyl)indol-3-yl]vinyl]benzoic Acid] yielded a half-maximal inhibitory concentration (IC50) of 0.5 to 10 µM.
